Each compound was assayed against T1, EHMT2 (Homo sapiens, UniProt Q96KQ7) (assay: MDA-MB-231 H3K9me2 in-cell Western assay (EHMT2 ICW)). Conditions: H3K9me2 in-cell Western, MDA-MB-231 cells; read-out: EHMT2 ICW (IC50 μM).
T1 construct: host or cells: MDA-MB-231
T1 sequence (Q96KQ7 1-1210): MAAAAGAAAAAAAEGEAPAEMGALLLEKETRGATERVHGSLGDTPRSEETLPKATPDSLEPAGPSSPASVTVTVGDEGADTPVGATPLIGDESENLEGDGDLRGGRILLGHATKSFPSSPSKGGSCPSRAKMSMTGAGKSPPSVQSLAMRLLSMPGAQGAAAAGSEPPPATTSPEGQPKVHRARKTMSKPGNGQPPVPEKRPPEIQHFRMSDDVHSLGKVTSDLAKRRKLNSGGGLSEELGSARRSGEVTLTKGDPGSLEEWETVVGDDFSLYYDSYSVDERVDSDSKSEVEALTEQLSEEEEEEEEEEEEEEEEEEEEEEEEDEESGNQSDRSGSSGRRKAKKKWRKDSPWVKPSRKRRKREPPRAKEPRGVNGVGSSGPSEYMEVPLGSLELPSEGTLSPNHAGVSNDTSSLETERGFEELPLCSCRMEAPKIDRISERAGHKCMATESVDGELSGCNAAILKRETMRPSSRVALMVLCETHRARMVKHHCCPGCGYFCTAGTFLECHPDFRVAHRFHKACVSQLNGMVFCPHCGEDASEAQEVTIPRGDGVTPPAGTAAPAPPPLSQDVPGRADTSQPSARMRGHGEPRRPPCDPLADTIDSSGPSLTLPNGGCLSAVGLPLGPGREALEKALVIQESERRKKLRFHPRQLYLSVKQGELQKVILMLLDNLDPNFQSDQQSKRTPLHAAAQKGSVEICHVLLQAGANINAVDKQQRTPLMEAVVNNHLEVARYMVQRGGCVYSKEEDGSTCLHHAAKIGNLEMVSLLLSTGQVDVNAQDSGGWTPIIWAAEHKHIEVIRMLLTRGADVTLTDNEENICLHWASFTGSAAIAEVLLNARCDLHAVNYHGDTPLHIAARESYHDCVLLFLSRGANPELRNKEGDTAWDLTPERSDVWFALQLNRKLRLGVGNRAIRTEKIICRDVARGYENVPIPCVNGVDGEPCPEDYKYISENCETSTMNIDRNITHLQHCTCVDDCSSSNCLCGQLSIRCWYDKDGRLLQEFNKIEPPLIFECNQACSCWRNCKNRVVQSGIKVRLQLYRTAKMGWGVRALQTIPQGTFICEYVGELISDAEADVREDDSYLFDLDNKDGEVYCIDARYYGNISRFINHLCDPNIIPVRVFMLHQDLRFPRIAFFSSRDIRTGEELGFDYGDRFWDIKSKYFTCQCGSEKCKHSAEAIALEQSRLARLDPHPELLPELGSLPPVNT
Assay type: cell-based
Summary of the method: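 MDA-MB-231 cells (3,000/well) were exposed to compound for 30 min at room temperature and then 48 h at 37 °C, fixed with paraformaldehyde, and stained with anti-H3K9me2 (800 nm) plus DRAQ5 (700 nm). Per-well channel ratios gave percent inhibition, and IC50 came from a four-parameter fit of triplicate wells.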

| Compound | IC50 |
| --- | --- |
| CNc1ccnc(Nc2cc(OCCCN3CCCC3)c3cn[nH]c3c2)n1 [Compound 538, N^4-methyl-N^2-(4-(3-(pyrrolidin-1-yl)propoxy)-1H-indazol-6-yl)pyrimidine-2,4-diamine] | > 10 µM |
| CNc1ccnc(Nc2cc(OCCCN3CCCC3)c3[nH]ncc3c2)n1 [Compound 539] | > 10 µM |
| CNc1ccnc(NC2CCCNC2)n1 (stereo not drawn) [Compound 541, N^4-methyl-N^2-(piperidin-3-yl)pyrimidine-2,4-diamine] | > 10 µM |
| CNc1ccnc(NC2CCNCC2)n1 [Compound 542, N^4-methyl-N^2-(piperidin-4-yl)pyrimidine-2,4-diamine] | > 10 µM |
| CCCC1(Nc2nccc(NC)n2)CCCNC1 (stereo not drawn) [Compound 544] | > 10 µM |
| CCCC1(Nc2nccc(NC)n2)CCNCC1 [Compound 545] | > 10 µM |
| CNc1ccnc(NC2(C)CCCNC2)n1 (stereo not drawn) [Compound 546, N^4-methyl-N^2-(3-methylpiperidin-3-yl)pyrimidine-2,4-diamine] | > 10 µM |
| CNc1ccnc(NC2(C)CCNCC2)n1 [Compound 547, N^4-methyl-N^2-(4-methylpiperidin-4-yl)pyrimidine-2,4-diamine] | > 10 µM |
| CNc1ccnc(N[C@@H]2CC[C@H](N)C2)n1 [Compound 548, N^2-((1R,3S)-3-aminocyclopentyl)-N^4-methylpyrimidine-2,4-diamine] | > 10 µM |
| CCCCN1CCCC(C)(Nc2nccc(NC)n2)C1 (stereo not drawn) [Compound 549, N^2-(1-butyl-3-methylpiperidin-3-yl)-N^4-methylpyrimidine-2,4-diamine] | > 10 µM |
| CCCCN1CCC(C)(Nc2nccc(NC)n2)CC1 [Compound 550, N^2-(1-butyl-4-methylpiperidin-4-yl)-N^4-methylpyrimidine-2,4-diamine] | > 10 µM |
| CNc1cc(C)nc(Nc2ccc(OC)c(OCCCN(C)C3CCC3)c2)n1 [Compound 551, N^2-(3-(3-(cyclobutyl(methyl)amino)propoxy)-4-methoxyphenyl)-N^4,6-dimethylpyrimidine-2,4-diamine] | 0.1 to 1 µM |
| c1nc(NC2CCNCC2)ncc1OCCCN1CCCC1 [Compound 552] | > 10 µM |
| CN1CCC(COc2cnc(NCC3CCOCC3)nc2)C1 (stereo not drawn) [Compound 553] | > 10 µM |
| CN1CCC(COc2ccc(NC3CCNCC3)nc2)C1 (stereo not drawn) [Compound 554] | > 10 µM |
| CN1CCC(COc2cnc(NC3CCNCC3)nc2)C1 (stereo not drawn) [Compound 555] | > 10 µM |
| c1nc(NC2CCNCC2)ncc1OCC1CCN(C2CC2)C1 (stereo not drawn) [Compound 556] | > 10 µM |
| c1nc(NC2CCOCC2)ncc1OCC1CCN(C2CC2)C1 (stereo not drawn) [Compound 557] | > 10 µM |
| CNc1cc(C)nc(Nc2cnc(OC)c(OC[C@H]3CCN(C4CC4)C3)c2)n1 [Compound 558] | 0.1 to 1 µM |
| CNc1cc(C)nc(Nc2ccc(OC)c(OCC3CN(C(C)C)C3)c2)n1 [Compound 559] | 0.1 to 1 µM |
| CCN1CC(C(O)Oc2cc(Nc3nc(C)cc(NC)n3)ccc2OC)C1 (stereo not drawn) [Compound 560] | 0.1 to 1 µM |

| Compound | IC50 |
| --- | --- |
| CNc1cc(C)nc(Nc2ccc(OC)c(O)c2)n1 [Compound 561] | > 10 µM |
| CCN1CC(C(C#N)Oc2cc(Nc3nc(C)cc(NC)n3)ccc2OC)C1 (stereo not drawn) [Compound 562] | 1 to 10 µM |
| CNc1cc(C)nc(Nc2ccc(OC)c(OC[C@@H]3CCN(C4CCC4)C3)c2)n1 [Compound 563] | < 0.1 µM |
| CCN1CC(COc2cc(Nc3nccc4[nH]ccc34)ncc2OC)C1 [Compound 564] | > 10 µM |
| COc1cc(Nc2nc(C)cc3[nH]ncc23)ncc1OCCCN1CCCC1 [Compound 565] | 1 to 10 µM |
| CCN1CC(COc2cc(Nc3cc(NC)ncc3F)ncc2OC)C1 [Compound 566] | > 10 µM |
| CCN1CC(COc2cc(Nc3cc(NC)nc(C)c3F)ncc2OC)C1 [Compound 567] | > 10 µM |
| CNc1cc(C)nc(Nc2ccc(OC)c(OC[C@@H]3CCN(C4(C)CC4)C3)c2)n1 [Compound 568] | 0.1 to 1 µM |
| CCN1CC(COc2cc(Nc3cc(NC)cc(C)n3)cnc2OC)C1 [Compound 569] | 0.1 to 1 µM |
| CCN1CC[C@@H](COc2cc(Nc3nc(C)cc(NC)n3)ccc2OC)C1 [Compound 571] | 0.1 to 1 µM |
| COc1ccc(NC2CCNCC2)cc1OCCCN1CCCC1 [Compound 572] | > 10 µM |
| COc1ccc(NC2CCCNC2)cc1OCCCN1CCCC1 (stereo not drawn) [Compound 573] | > 10 µM |
| CNc1cc(C)nc(Nc2ccc(OC)c(OCCCN3CC4(CC4)C3)c2)n1 [Compound 574] | > 10 µM |
| CNc1cc(C)nc(Nc2ccc(OC)c(OCC3CN(C(C)C)C3)c2)n1 [Compound 575] | 1 to 10 µM |
| CNc1cc(C)nc(Nc2ccc(OC)c(OCC3CN(C4CCC4)C3)c2)n1 [Compound 576] | 0.1 to 1 µM |
| CNc1cc(C)nc(Nc2ccc(OC)c(OCC3CN(C4CCCC4)C3)c2)n1 [Compound 577] | > 10 µM |
| COc1cc(NC2CCCNC2)ccc1OCCCN1CCCC1 (stereo not drawn) [Compound 578] | > 10 µM |
| COc1cc(NC2CCNCC2)ccc1OCCCN1CCCC1 [Compound 579] | > 10 µM |
| CNc1cc(C)nc(Nc2ccc(OC)c(OCC3CN(C4CCOC4)C3)c2)n1 (stereo not drawn) [Compound 580] | > 10 µM |
| COc1cnc(Nc2cccc3[nH]ncc23)cc1OCCCN1CCCC1 [Compound 581] | > 10 µM |
| COc1ccc(Nc2nccc3[nH]ncc23)cc1OCCCN1CCCC1 [Compound 582] | > 10 µM |

| Compound | IC50 |
| --- | --- |
| COc1cnc(Nc2ccnc3[nH]ncc23)cc1OCCCN1CCCC1 [Compound 583] | > 10 µM |
| CCN1CC(COc2cc(Nc3cccc4nncn34)ncc2OC)C1 [Compound 584] | > 10 µM |
| COc1cnc(Nc2cccc3nccn23)cc1OCCCN1CCCC1 [Compound 585] | 1 to 10 µM |
| COc1cnc(Nc2cccn3ccnc23)cc1OCCCN1CCCC1 [Compound 586] | > 10 µM |
| COc1cc2c(C3CCN(C)CC3)nc(N(C)C)nc2cc1OCCCN1CCCC1 [Compound 587] | 0.1 to 1 µM |
| CC(C)N1CC(COc2cnc(NC3CCNCC3)nc2)C1 [Compound 588] | > 10 µM |
| COc1cnc(Nc2cccc3cncn23)cc1OCCCN1CCCC1 [Compound 589] | > 10 µM |
| COc1ccc(Nc2nc(C)cc(NCC3CCOCC3)n2)cc1OCCCN1CCCC1 [Compound 590] | 0.1 to 1 µM |
| COc1ncc(Nc2nc(C)cc(NCC3CCOCC3)n2)cc1OCCCN1CCCC1 [Compound 591] | 0.1 to 1 µM |
| COc1ncc(Nc2nc(C)cc(NCC3CCOCC3)n2)cc1OC[C@@H]1CCN(C(C)C)C1 [Compound 592] | 0.1 to 1 µM |
| COc1ncc(Nc2nc(C)cc(NC(C)C)n2)cc1OCCCN1CCCC1 [Compound 593] | 0.1 to 1 µM |
| COc1ncc(Nc2nc(C)cc(NCC3CCOCC3)n2)cc1OC[C@@H]1CCN(C2CCC2)C1 [Compound 594] | 0.1 to 1 µM |
| COc1ncc(Nc2nc(C)cc(NCC3CCOCC3)n2)cc1OC[C@@H]1CCN(C2CCC2)C1 [Compound 595] | 0.1 to 1 µM |
| COc1cnc(Nc2cc(C)nc3[nH]ncc23)cc1OCCCN1CCCC1 [Compound 596] | > 10 µM |
| C/C=C/C(=O)Nc1cc(OCCCN2CCCC2)c(OC)cn1 [Compound 597] | > 10 µM |
| C/C=C/C(=O)Nc1ccc(OC)c(OCCCN2CCCC2)c1 [Compound 598] | > 10 µM |
| CCN1CC[C@@H](COc2cc(Nc3nc(C)cc(NC)n3)cnc2OC)C1 [Compound 599] | 0.1 to 1 µM |
| CNc1cc(C)nc(Nc2ccc(OC)c(OC[C@@H]3CCNC3)c2)n1 [Compound 600] | < 0.1 µM |
| CCc1cc(NC)nc(Nc2cnc(OC)c(OC[C@@H]3CCN(CC)C3)c2)n1 [Compound 601] | 0.1 to 1 µM |
| CCN1CC[C@@H](COc2cc(Nc3nc(C)cc(NC(C)C)n3)ccc2OC)C1 [Compound 602] | 0.1 to 1 µM |
| COc1ccc(Nc2nc(C)cc(NC(C)C)n2)cc1OCCCN1CCCC1 [Compound 603] | 0.1 to 1 µM |
